Reference: ChEMBL document CHEMBL1201862, “PubChem BioAssay data set” (2004)
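96-well plates; 48 h exposure; 5 concentrations. Endpoints by linear interpolation between flanking doses. Not reached: highest tested concentration assigned. The concentration for 50% growth inhibition is given as GI50.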 Activity calls are given as the source filed them. Cut-off read from the data, not from the text of the source: active = GI50 up to about 1.1 µM and inactive = higher.

Tests used:
Experiment in all cases: NCI tumour cell line growth inhibition, 48 h
OVCAR-3 = test system: OVCAR-3
DLD-1 = test system: DLD-1
M14 = test system: M14
NCI-H460 = test system: NCI-H460
786-0 = test system: 786-0
SNB-19 = test system: SNB-19
OVCAR-4 = test system: OVCAR-4
SK-OV-3 = test system: SK-OV-3
SK-MEL-28 = test system: SK-MEL-28
A549 = test system: A549
RPMI-8226 = test system: RPMI-8226
HOP-92 = test system: HOP-92
OVCAR-5 = test system: OVCAR-5
SR = test system: SR
UACC-62 = test system: UACC-62
MDA-MB-435 = test system: MDA-MB-435
Hs-578T = test system: Hs-578T
T47D = test system: T47D
MDA-N = test system: MDA-N
DU-145 = test system: DU-145

| Compound | GI50 (OVCAR-3) | GI50 (DLD-1) | GI50 (M14) | GI50 (NCI-H460) | GI50 (786-0) | GI50 (SNB-19) | GI50 (OVCAR-4) | GI50 (SK-OV-3) | GI50 (SK-MEL-28) | GI50 (A549) | GI50 (RPMI-8226) | GI50 (HOP-92) | GI50 (OVCAR-5) | GI50 (SR) | GI50 (UACC-62) | GI50 (MDA-MB-435) | GI50 (Hs-578T) | GI50 (T47D) | GI50 (MDA-N) | GI50 (DU-145) |
| --- | --- | --- | --- | --- | --- | --- | --- | --- | --- | --- | --- | --- | --- | --- | --- | --- | --- | --- | --- | --- |
| CCCC[C@H](CCc1ccccc1)N(C(=O)OC)N1CCC[C@H]1COC | 18.3 µM (inactive) | 18.4 µM (inactive) | 26 µM (inactive) | 17.1 µM (inactive) | 21.4 µM (inactive) | 16.4 µM (inactive) | 17.5 µM (inactive) | 24.1 µM (inactive) | 19.9 µM (inactive) | 24.8 µM (inactive) | 31.6 µM (inactive) | 18.6 µM (inactive) | 17.8 µM (inactive) | 24.3 µM (inactive) | 16 µM (inactive) | – | – | – | – | – |
| O=C1C=CC(=O)C2=C1[C@@H](O)C1CC=CC3C(=O)O[C@@H]2C31 (stereo not given in full) | 21 µM (inactive) | 18.2 µM (inactive) | 19.6 µM (inactive) | > 55.8 µM (inactive) | 26.2 µM (inactive) | > 100 µM (inactive) | 13.2 µM (inactive) | > 100 µM (inactive) | > 45.8 µM (inactive) | > 52.7 µM (inactive) | 19.9 µM (inactive) | 26.2 µM (inactive) | 74.3 µM (inactive) | 4.65 µM (inactive) | 19.2 µM (inactive) | – | – | – | – | – |
| CC(C)C(Nc1c2ccccc2[n+](C)c2ccccc12)C(=O)O (stereo not given) | > 100 µM (inactive) | > 100 µM (inactive) | > 100 µM (inactive) | > 100 µM (inactive) | > 100 µM (inactive) | > 100 µM (inactive) | > 100 µM (inactive) | > 100 µM (inactive) | – | > 100 µM (inactive) | > 100 µM (inactive) | – | > 100 µM (inactive) | > 100 µM (inactive) | > 100 µM (inactive) | – | – | – | – | – |
| N#C/C(=C\c1c(Cl)cccc1Cl)c1ccccc1 | 3.8 µM (inactive) | 5.18 µM (inactive) | 6.4 µM (inactive) | 4.69 µM (inactive) | 4.92 µM (inactive) | 3.66 µM (inactive) | 20.1 µM (inactive) | 6.11 µM (inactive) | 6.92 µM (inactive) | 7.8 µM (inactive) | 5.48 µM (inactive) | 8.49 µM (inactive) | > 77.4 µM (inactive) | 2.63 µM (inactive) | 4.88 µM (inactive) | – | – | – | – | – |
| CCCCC(N)CSSCC(N)CCCC (stereo not given) | 20.8 µM (inactive) | 21.6 µM (inactive) | 17.9 µM (inactive) | 36.7 µM (inactive) | 17.9 µM (inactive) | 58.5 µM (inactive) | 18.2 µM (inactive) | 57.1 µM (inactive) | 17.7 µM (inactive) | 52 µM (inactive) | 25.1 µM (inactive) | – | 20.5 µM (inactive) | 17.5 µM (inactive) | 21.1 µM (inactive) | – | – | – | – | – |
| CC(CCC(=O)O)c1ccc(Br)cc1 (stereo not given) | > 100 µM (inactive) | > 100 µM (inactive) | > 100 µM (inactive) | > 100 µM (inactive) | > 100 µM (inactive) | > 100 µM (inactive) | > 100 µM (inactive) | > 100 µM (inactive) | > 100 µM (inactive) | > 100 µM (inactive) | > 100 µM (inactive) | – | > 100 µM (inactive) | > 100 µM (inactive) | > 100 µM (inactive) | – | – | – | – | – |
| NC1=NCN(C2OC(CO)C(O)C2O)C(=O)N1 (stereo not given) | 38.6 µM (inactive) | 6.52 µM (inactive) | 5.71 µM (inactive) | 5.48 µM (inactive) | 4.52 µM (inactive) | 159 µM (inactive) | 139 µM (inactive) | 126 µM (inactive) | 57.3 µM (inactive) | 18.5 µM (inactive) | 1.8 µM (inactive) | 391 µM (inactive) | 183 µM (inactive) | 4.49 µM (inactive) | 15.2 µM (inactive) | 6.64 µM (inactive) | 23.4 µM (inactive) | 15 µM (inactive) | 7.87 µM (inactive) | 148 µM (inactive) |
| NCCCCNc1ccc2c(=O)[nH][nH]c(=O)c2c1 | > 100 µM (inactive) | > 100 µM (inactive) | > 100 µM (inactive) | – | > 100 µM (inactive) | > 100 µM (inactive) | > 100 µM (inactive) | > 100 µM (inactive) | > 100 µM (inactive) | > 100 µM (inactive) | – | > 100 µM (inactive) | > 100 µM (inactive) | > 100 µM (inactive) | > 100 µM (inactive) | – | – | – | – | – |
| CCN(CC)c1oc(N(CC)CC)c(C(=O)Nc2ccccn2)c(=O)c1C(C)=O | > 100 µM (inactive) | > 100 µM (inactive) | > 100 µM (inactive) | > 100 µM (inactive) | > 100 µM (inactive) | > 100 µM (inactive) | – | > 100 µM (inactive) | > 100 µM (inactive) | > 100 µM (inactive) | > 100 µM (inactive) | > 100 µM (inactive) | > 100 µM (inactive) | > 100 µM (inactive) | > 100 µM (inactive) | – | – | – | – | – |
| NC(=S)N1N=C2c3ccccc3CC[C@H]2[C@@H]1c1cccs1 | 36.2 µM (inactive) | 50.5 µM (inactive) | 22 µM (inactive) | 33 µM (inactive) | 43.9 µM (inactive) | 75.7 µM (inactive) | 45.2 µM (inactive) | 37.7 µM (inactive) | 44.3 µM (inactive) | 30.1 µM (inactive) | 37.9 µM (inactive) | 68.7 µM (inactive) | > 100 µM (inactive) | 4.68 µM (inactive) | 33.7 µM (inactive) | – | – | – | – | – |
| COc1cc2c(c(OC)c1OC)[C@@H]1CCCCC[C@@H]1CCC2=O | 97.3 µM (inactive) | 38.4 µM (inactive) | > 100 µM (inactive) | > 58.6 µM (inactive) | > 71.3 µM (inactive) | > 100 µM (inactive) | > 91.8 µM (inactive) | > 100 µM (inactive) | > 100 µM (inactive) | > 100 µM (inactive) | 31.9 µM (inactive) | 82.6 µM (inactive) | > 100 µM (inactive) | 33.3 µM (inactive) | 78.9 µM (inactive) | – | – | – | – | – |
| COc1cc(OC)c(/C=C2\N=C(C)N(Nc3nnc(NN4C(=O)/C(=C/c5c(OC)cc(OC)cc5OC)N=C4C)c4ccccc34)C2=O)c(OC)c1 | – | > 100 µM (inactive) | > 100 µM (inactive) | > 100 µM (inactive) | > 100 µM (inactive) | > 100 µM (inactive) | > 100 µM (inactive) | – | > 100 µM (inactive) | > 100 µM (inactive) | > 100 µM (inactive) | > 100 µM (inactive) | > 100 µM (inactive) | > 100 µM (inactive) | > 100 µM (inactive) | – | – | – | – | – |
| CC[C@@]1(O)C(=O)OCc2c1cc1n(c2=O)Cc2cc3cc4c(cc3nc2-1)OCO4 | 0.0551 µM (active) | 0.0559 µM (active) | < 0.001 µM (active) | < 0.001 µM (active) | < 0.001 µM (active) | 0.00152 µM (active) | 0.0507 µM (active) | 0.002 µM (active) | 0.0188 µM (active) | 0.00144 µM (active) | 0.0281 µM (active) | 0.0026 µM (active) | 0.0111 µM (active) | < 0.001 µM (active) | < 0.001 µM (active) | 0.0149 µM (active) | 0.244 µM (active) | 0.0104 µM (active) | – | < 0.001 µM (active) |
| Nc1cc2[nH]cnc2c(=O)[nH]1 [DEZAGUANINE] | 11 µM (inactive) | 13.9 µM (inactive) | 45.6 µM (inactive) | 10.4 µM (inactive) | 19.4 µM (inactive) | > 264 µM (inactive) | 20.2 µM (inactive) | 5.12 µM (inactive) | 40.6 µM (inactive) | 24.5 µM (inactive) | 19.3 µM (inactive) | 77.8 µM (inactive) | 45.5 µM (inactive) | 9.1 µM (inactive) | 12.9 µM (inactive) | 14.3 µM (inactive) | > 196 µM (inactive) | 89.1 µM (inactive) | 15.5 µM (inactive) | 5.43 µM (inactive) |
